# Assays:
# human cancer cell lines = assay: In vitro cytotoxicity study, Summarized results 2 (cell line not given); format: cell-based; conditions: Homo sapiens, Table 4, Summarized results 2; cell line not stated
# Procedure: (§1) The goal of this protocol is to study the effects of the compounds on the proliferation of various human cancer cell lines in order to evaluate the EC50 and their activity in cellulo.
# (§2) The cells are seeded the day before treatment in 96 well plates. Each compound concentration is tested in triplicate. A 96 well plate can contain 3 compounds.
# (§3) Stock solutions of the tested compounds are prepared at 10 mM in 100% DMSO and stored at […].
# (§4) The analysis is carried out by using the GraphPad PRISM 5.0 software.
# (§5) Day 1: the cells are seeded one day before treatment with the compounds in 96 well plates. Cell suspensions for each cancer cell line are prepared with a specific density in a specific culture medium (see preceding table). Next, 100 µL of cell suspension is distributed per well (1×96 well plate per cell line).
# (§6) Day 2: 24 hours later, the […] compounds or controls (DMSO) are added to the cells ([…] of a compound solution in its specific medium with a final DMSO concentration of 0.15%).
# (§7) Each compound concentration is tested in triplicate (6 concentrations between 10^−9 M and 10^−5 M per compound). The cells are incubated at 37° C. for 72 hours with no new treatment.
# (§8) Day 5: 15 minutes before incubation of the cells with MTT (3-[4,5-dimethylthiazol-2-yl]-2,5-diphenyltetrazolium bromide), 10% SDS is added to the control wells to obtain a final concentration of 1%. The positive control of inhibition of proliferation is 1% SDS.
# (§9) Once the medium is removed, 100 µL of a solution of MTT in fresh medium is added to each well (10 μL of 10×MTT solution at 5 mg/mL in PBS +[…] of fresh medium) and the plates are incubated for 4 hours at 37° C.
# (§10) The MTT reaction is quenched and the medium is homogenized by addition of […] of 10% SDS/0.01 M HCl solution placed in each well. The medium is incubated for 2 hours at 37° C. before measuring its absorbance. Absorbance is measured at 570 nm.
# A2058 = assay: In vitro cytotoxicity study, inhibition of cell growth (MTT); format: cell-based; conditions: Homo sapiens, A2058, melanoma, 72 hours
# Procedure: as §1, §2
# (§11) Cell suspensions for each cancer cell line are prepared in culture medium with a specific density of the specific cell (see the following table). Then, 100 µL of cell suspension is spread per well (plate per one cell line).
# as §3, §4, §5, §6, §7, §8, §9, §10
# A375 = assay: as above; format: cell-based; conditions: Homo sapiens, A-375, A375, melanoma, 72 hours
# Procedure: as §1, §2, §11, §3, §4, §5, §6, §7, §8, §9, §10
# AsPC-1 = assay: as above; format: cell-based; conditions: Homo sapiens, ASPC1, AsPC-1, pancreas, 72 hours
# Procedure: as §1, §2, §11, §3, §4, §5, §6, §7, §8, §9, §10
# BxPC3 = assay: as above; format: cell-based; conditions: Homo sapiens, BXPC-3, BxPC3, pancreas, 72 hours
# Procedure: as §1, §2, §11, §3, §4, §5, §6, §7, §8, §9, §10
# CFPAC-1 = assay: as above; format: cell-based; conditions: Homo sapiens, CFPAC-1, pancreas, 72 hours
# Procedure: as §1, §2, §11, §3, §4, §5, §6, §7, §8, §9, §10
# COLO-205 = assay: as above; format: cell-based; conditions: Homo sapiens, COLO-205, colon, 72 hours
# Procedure: as §1, §2, §11, §3, §4, §5, §6, §7, §8, §9, §10
# Calu-1 = assay: as above; format: cell-based; conditions: Homo sapiens, Calu-1, lung, 72 hours
# Procedure: as §1, §2, §11, §3, §4, §5, §6, §7, §8, §9, §10
# Capan-1 = assay: as above; format: cell-based; conditions: Homo sapiens, Capan-1, pancreas, 72 hours
# Procedure: as §1, §2, §11, §3, §4, §5, §6, §7, §8, §9, §10
# HepG2 = assay: as above; format: cell-based; conditions: Homo sapiens, HepG2, liver, 72 hours
# Procedure: as §1, §2, §11, §3, §4, §5, §6, §7, §8, §9, §10
# IPC298 = assay: as above; format: cell-based; conditions: Homo sapiens, IPC-298, IPC298, melanoma, 72 hours
# Procedure: as §1, §2, §11, §3, §4, §5, §6, §7, §8, §9, §10
# LoVo = assay: as above; format: cell-based; conditions: Homo sapiens, colon, 72 hours
# Procedure: as §1, §2, §11, §3, §4, §5, §6, §7, §8, §9, §10
# MEWO = assay: as above; format: cell-based; conditions: Homo sapiens, melanoma, 72 hours
# Procedure: as §1, §2, §11, §3, §4, §5, §6, §7, §8, §9, §10
# PC-3 = assay: as above; format: cell-based; conditions: Homo sapiens, PC-3, prostate, 72 hours
# Procedure: as §1, §2, §11, §3, §4, §5, §6, §7, §8, §9, §10
# PF382 = assay: as above; format: cell-based; conditions: Homo sapiens, PF-382, PF382, lymphoid, 72 hours
# Procedure: as §1, §2, §11, §3, §4, §5, §6, §7, §8, §9, §10
# T-47D = assay: as above; format: cell-based; conditions: Homo sapiens, T47D, breast, 72 hours
# Procedure: as §1, §2, §11, §3, §4, §5, §6, §7, §8, §9, §10
# purified tubulin = biological target: T1, purified tubulin (Sus scrofa, UniProt P02550+P02554); assay: Effect on the polymerization of purified tubulin (turbidimetry at 350 nm); format: biochemical, pig; conditions: 2.4 μM tubulin, 37° C.
# T1 construct: Tubulin is prepared from pig brain; from tissue; host or cells: pig brain
# Procedure: FIG. 1. Study of the innovative effect of compounds of the selection patent on the polymerization of purified tubulin. This is a comparative study of the effect on the polymerization of purified tubulin by compounds of the selection patent compared to that of the compounds of the patent FR 2,921,927. Polymerized tubulin absorbs at 350 nm.
# Tubulin is prepared from pig brain according to the purification process described by Williams and Lee (1982). Tubulin polymerization is monitored by turbidimetry at 350 nm with an MC2 spectrophotometer (Safas, Monaco) equipped with a heat-jacketed cuvette holder. The reaction mixture was prepared at 0° C., and contains PEM buffer, 25% glycerol (v/v), 1 mM GTP, and 2.4 μM tubulin. The GTP and the tubulin are added at the last minute. […] The same volume of DMSO alone was used as a negative control. The final volume of the sample is […]. The reaction is initiated by placing the cuvette in the cell compartment of the spectrophotometer thermostated at 37° C. Ice is added 45 minutes later to launch depolymerization in order to confirm the specificity of the signal.
# T1 sequence (P02550 whole entry): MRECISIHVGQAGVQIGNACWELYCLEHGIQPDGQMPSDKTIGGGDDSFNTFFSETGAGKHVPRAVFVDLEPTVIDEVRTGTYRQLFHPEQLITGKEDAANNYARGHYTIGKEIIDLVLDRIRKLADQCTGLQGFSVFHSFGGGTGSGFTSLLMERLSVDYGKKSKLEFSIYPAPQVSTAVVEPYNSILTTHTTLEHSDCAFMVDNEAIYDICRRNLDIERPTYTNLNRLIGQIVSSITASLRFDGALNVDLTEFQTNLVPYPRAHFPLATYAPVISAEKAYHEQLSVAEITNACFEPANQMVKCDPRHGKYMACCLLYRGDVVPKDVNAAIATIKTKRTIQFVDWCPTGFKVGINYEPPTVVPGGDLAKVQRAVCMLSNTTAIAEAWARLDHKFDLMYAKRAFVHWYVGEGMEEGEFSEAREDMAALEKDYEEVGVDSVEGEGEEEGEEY
# T1 sequence (P02554 whole entry): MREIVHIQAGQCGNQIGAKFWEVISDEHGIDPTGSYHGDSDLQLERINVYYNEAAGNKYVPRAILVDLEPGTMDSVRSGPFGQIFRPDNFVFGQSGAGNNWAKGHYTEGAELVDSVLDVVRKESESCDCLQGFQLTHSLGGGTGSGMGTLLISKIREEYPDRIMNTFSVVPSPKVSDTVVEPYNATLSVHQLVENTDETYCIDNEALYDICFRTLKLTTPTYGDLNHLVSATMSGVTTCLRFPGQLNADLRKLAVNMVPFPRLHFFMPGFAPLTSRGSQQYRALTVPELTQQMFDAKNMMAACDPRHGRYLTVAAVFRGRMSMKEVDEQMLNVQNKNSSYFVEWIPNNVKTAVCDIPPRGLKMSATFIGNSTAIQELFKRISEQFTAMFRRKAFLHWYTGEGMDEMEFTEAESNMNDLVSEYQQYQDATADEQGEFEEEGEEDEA
compound,measurement,setting,value
"CNc1nc2ccccc2n2c(Br)cnc12 [CPA 8, 1-Bromo-N-methylimidazo[1,2-a]quinoxalin-4-amine]",IC50,human cancer cell lines,2350 nM
"Oc1ccc(-c2cnc3c(N4CCNCC4)nc4ccccc4n23)cc1O [EAPB0 2308, 4-(4-(Piperazin-1-yl)imidazo[1,2-a]quinoxalin-1-yl)benzene-1,2-diol]",IC50,human cancer cell lines,> 10000 nM
"CNc1nc2ccccc2n2c(-c3cccc(OC)c3)cnc12 [EAPB0503, 1-(3-methoxyphenyl)-N-methylimidazo[1,2-a]quinoxalin-4-amine, reference compound]",EC50,A2058,185 nM
same,EC50,A375,383 nM
same,EC50,AsPC-1,2800 nM
same,EC50,BxPC3,159 nM
same,EC50,CFPAC-1,598 nM
same,EC50,COLO-205,201 nM
same,EC50,Calu-1,196 nM
same,EC50,Capan-1,561 nM
same,EC50,HepG2,1360 nM
same,EC50,IPC298,469 nM
same,EC50,LoVo,89 nM
same,EC50,MEWO,125 nM
same,EC50,PC-3,537 nM
same,EC50,PF382,205 nM
same,EC50,T-47D,198 nM
same,Effect on polymerization of purified tubulin (absorbance level at 350 nm),purified tubulin,decreases the absorbance level
"Nc1nc2ccccc2n2c(-c3ccc(O)c(O)c3)cnc12 [EAPB02302, 1-(3,4-Dihydroxyphenyl)imidazo[1,2-a]quinoxalin-4-amine]",EC50,A2058,13 nM
same,EC50,A375,60 nM
same,EC50,AsPC-1,1820 nM
same,EC50,BxPC3,25 nM
same,EC50,CFPAC-1,67 nM
same,EC50,COLO-205,44 nM
same,EC50,Calu-1,14 nM
same,EC50,Capan-1,206 nM
same,EC50,HepG2,267 nM
same,EC50,IPC298,75 nM
same,EC50,LoVo,44 nM
same,EC50,MEWO,10 nM
same,EC50,PC-3,56 nM
same,EC50,PF382,29 nM
same,EC50,T-47D,78 nM
"CNc1nc2ccccc2n2c(-c3ccc(OC)c(OC)c3)cnc12 [EAPB 02203, 1-(3,4-Dimethoxyphenyl)-N-methylimidazo[1,2-a]quinoxalin-4-amine]",IC50,human cancer cell lines,193 nM
"CNc1nc2cc(OC(F)(F)F)ccc2n2c(-c3ccc(OC)c(OC)c3)cnc12 [EAPB 02203-7b, 1-(3,4-Dimethoxyphenyl)-N-methyl-7-(trifluoromethoxy)imidazo[1,2-a]quinoxalin-4-amine]",IC50,human cancer cell lines,3490 nM
"CNc1nc2ccc(C(F)(F)F)cc2n2c(-c3ccc(OC)c(OC)c3)cnc12 [EAPB 02203-8a, 1-(3,4-Dimethoxyphenyl)-N-methyl-8-(trifluoromethyl)imidazo[1,2-a]quinoxalin-4-amine]",IC50,human cancer cell lines,> 10000 nM
"COc1ccc(-c2cnc3c(NCCNC(=O)OC(C)(C)C)nc4ccccc4n23)cc1OC [EAPB 02211, tert-Butyl (2-((1-(3,4-dimethoxyphenyl)imidazo[1,2-a]quinoxalin-4-yl)amino)ethyl)carbamate]",IC50,human cancer cell lines,> 10000 nM
"COc1ccc(-c2cnc3c(NCCCCCCNC(=O)OC(C)(C)C)nc4ccccc4n23)cc1OC [EAPB 02212, tert-Butyl (6-((1-(3,4-dimethoxyphenyl)imidazo[1,2-a]quinoxalin-4-yl)amino)hexyl)carbamate]",IC50,human cancer cell lines,> 10000 nM
"COc1ccc(-c2cnc3c(N4CCN(C(=O)OC(C)(C)C)CC4)nc4ccccc4n23)cc1OC [EAPB 02213, tert-Butyl 4-(1-(3,4-dimethoxyphenyl)imidazo[1,2-a]quinoxalin-4-yl)piperazine-1-carboxylate]",IC50,human cancer cell lines,> 10000 nM
"COc1ccc(-c2cnc3c(NCCCNC(=O)OC(C)(C)C)nc4ccccc4n23)cc1OC [EAPB 02214, tert-Butyl (3-((1-(3,4-dimethoxyphenyl)imidazo[1,2-a]quinoxalin-4-yl)amino)propyl)carbamate]",IC50,human cancer cell lines,> 10000 nM
COc1ccc(-c2cnc3c(NC(C)C(=O)OC(C)(C)C)nc4ccccc4n23)cc1OC (stereo not drawn) [EAPB 02218],IC50,human cancer cell lines,> 10000 nM
COc1ccc(-c2cnc3c(NC(C(=O)OC(C)(C)C)C(C)C)nc4ccccc4n23)cc1OC (stereo not drawn) [EAPB 02220],IC50,human cancer cell lines,> 10000 nM
